Laboratory results reported in PubChem BioAssay (NCI).
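Grown in 96-well plates, cells were treated for 48 hours with each compound at five concentrations. Insufficient inhibition: endpoint recorded as highest concentration tested. GI50 = concentration required for 50% inhibition of growth. Definition used: TGI = concentration required for complete inhibition of growth.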

Legend:
Assay in all cases: NCI tumour cell line growth inhibition, 48 h
A498 renal = test system: A498 renal
HOP-62 NSCLC = test system: HOP-62 NSCLC
HOP-92 NSCLC = test system: HOP-92 NSCLC
OVCAR-8 ovarian = test system: OVCAR-8 ovarian
RXF 393 renal = test system: RXF 393 renal
SNB-19 CNS = test system: SNB-19 CNS
T-47D breast = test system: T-47D breast
CAKI-1 renal = test system: CAKI-1 renal
M14 melanoma = test system: M14 melanoma
SNB-75 CNS = test system: SNB-75 CNS

| Compound | GI50 (A498 renal) [µM] | TGI (A498 renal) [µM] | GI50 (HOP-62 NSCLC) [µM] | TGI (HOP-62 NSCLC) [µM] | GI50 (HOP-92 NSCLC) [nM] | TGI (HOP-92 NSCLC) [µM] | GI50 (OVCAR-8 ovarian) [nM] | TGI (OVCAR-8 ovarian) [µM] | GI50 (RXF 393 renal) [nM] | TGI (RXF 393 renal) [µM] | GI50 (SNB-19 CNS) [nM] | TGI (SNB-19 CNS) [µM] | GI50 (T-47D breast) [nM] | TGI (T-47D breast) [µM] | GI50 (CAKI-1 renal) [nM] | TGI (CAKI-1 renal) [µM] | GI50 (M14 melanoma) [nM] | TGI (M14 melanoma) [µM] | TGI (SNB-75 CNS) [µM] | GI50 (SNB-75 CNS) [µM] |
| --- | --- | --- | --- | --- | --- | --- | --- | --- | --- | --- | --- | --- | --- | --- | --- | --- | --- | --- | --- | --- |
| Oc1ccc(N=Nc2ccccn2)c(O)c1 | 16.7 | > 100 | 0.832 | > 100 | 2090 | > 100 | 1630 | > 100 | 1190 | 33.6 | 2070 | > 100 | 2050 | > 100 |  |  |  |  |  |  |
| C=C1C(=O)O[C@H]2[C@H]1CC/C(COC(=O)NCc1ccc(Cn3c(=O)sn(-c4ccccc4)c3=O)cc1)=C\CC[C@@]1(C)O[C@@H]21 | 3.91 | 14.5 | 12.4 | 26.3 | 1820 | 3.44 | 2830 | 8.55 | 1750 | 3.4 | 4260 | 16.1 | 1980 | 4.66 | 2490 | 6.1 | 1800 | 3.58 |  |  |
| CCCCCCCCCCC(C)CCCCCCC(=O)O (stereo not given) |  | > 100 |  | > 100 |  | > 100 |  | > 100 |  | > 100 |  | > 100 |  |  |  | > 100 |  | > 100 | > 100 |  |
| COC(=O)C(C)NC(=O)c1ccccc1I(OS(=O)(=O)C(F)(F)F)c1ccccc1 (stereo not given) |  |  | 29.5 | 90.1 | 3660 | 21.6 | 36300 | > 100 | 17700 | 41.6 | 26300 | > 65.4 | 36300 | > 100 | > 42800 | > 62.5 | 1230 | 32.8 | > 87.8 | > 49 |
| O=C(O)/C(=C\c1ccncc1)c1cccc2ccccc12 |  |  |  | > 100 |  | > 100 |  | > 100 |  | > 100 |  | > 100 |  | > 100 |  |  |  | > 100 | > 100 |  |
| CC1(C)C(=O)/C(=C\c2cccnc2)C[C@]2(C)[C@H]3CC[C@@H]4[C@@H](C(=O)/C=C/c5ccncc5)CC[C@@]4(C)[C@]3(C)CC[C@@H]12 | 1.89 | 3.7 | 1.9 | 3.94 | 1480 | 3.39 | 2340 | 10.3 | 1720 | 3.18 | 1660 | 3.22 | 1600 | 9.54 | 2510 | 6.46 | 1890 | 4.93 |  |  |
| CCN(CC)CCNC(=O)c1cccc2nc3ccccc3nc12 |  | 30.9 |  | 33.8 |  | > 73.4 |  | > 100 |  | 28.2 |  | > 100 |  |  |  | > 100 |  | > 48.7 | > 100 |  |
| O=C(CC/C(CC(=O)c1ccc(Br)cc1)=N\O)Nc1ccc(Cl)c(Cl)c1 |  | > 100 |  | > 100 |  | > 100 |  | > 100 |  | 90.7 |  |  |  |  |  |  |  | > 100 | > 100 |  |
| CN(C)CC/C(=N\Nc1ccc(Cl)cc1Cl)c1ccccc1 |  | 30.1 |  | 30.3 |  |  |  | 34.9 |  | 20.6 |  | 30 |  |  |  |  |  | 29.1 | 20.9 |  |
| CCC[CH2][Sn]1([CH2]CCC)[O]CC(C)[O]1 (stereo not given) | 2.6 | 4.68 | 2.63 | 6.62 | 1160 | 2.52 | 1590 | 3.47 | 1460 | 2.99 | 1320 | 2.64 |  |  | 240 | 1.23 | 1870 | 4.87 | 2.3 | 0.57 |
| Cc1cccc2c(O)cc(=O)oc12 |  | > 100 |  | > 100 |  |  |  | > 100 |  | > 100 |  | > 100 |  |  |  |  |  | > 100 | > 100 |  |
| Oc1ccc(Cc2cc(Cl)cc(Cl)c2O)cc1Cl |  | 33.8 |  | 37.3 |  | 33.9 |  | 36.3 |  | 28.8 |  | 33.7 |  | 44.5 |  | 51.5 |  | 34 |  |  |
| COc1cccc2c1n([O-])c1cccc(OC)c1[n+]2=O | 16.4 | > 100 | 11 | 36.7 | 16300 | > 100 | 4510 | 35.8 | 19300 | > 100 |  |  | 2390 | 10.3 | 3970 | 76.5 | 7020 | 26.5 |  |  |
| CC(=O)[CH-]C(C)=O.CC(=O)[CH-]C(C)=O.CC[O-].CC[O-].[Ti+4] |  |  | > 100 | > 100 | > 100000 | > 100 | > 100000 | > 100 | > 100000 | > 100 | > 100000 | > 100 |  |  | > 100000 | > 100 | > 100000 | > 100 | > 100 | > 100 |
| NNC(=O)C(=O)N/N=C(\CCC(=O)Nc1ccc(Cl)cc1)Cc1nc2ccccc2s1 |  | > 100 |  | > 100 |  | > 100 |  | > 100 |  | > 100 |  | > 100 |  |  |  | > 100 |  | 66.5 | > 100 |  |
| N.N.O=P([O-])([O-])C1(P(=O)([O-])[O-])CCCCCN1.[Pt+2] | > 100 | > 100 | > 100 | > 100 | > 100000 | > 100 | > 100000 | > 100 | 42300 | > 100 | > 100000 | > 100 |  |  | > 100000 | > 100 | > 100000 | > 100 | 88.1 | 29.5 |
| O=C(CCC(=O)C1CCC/C1=N/O)Nc1ccc(Cl)cc1 (stereo not given) |  | > 100 |  | > 100 |  | > 100 |  | > 100 |  |  |  | > 100 |  |  |  | > 100 |  | > 100 | > 100 |  |
| CCSc1ccc(C2C(Br)C(=O)N2c2cc(OC)c(OC)c(OC)c2)cc1 (stereo not given) | 0.103 | 0.74 | 0.336 | > 100 | 443 | 14.1 | 403 | 51.8 |  |  | 440 | > 100 | 16900 | 35.7 |  |  | 128 | 2.12 | > 100 | 0.509 |
